# Experimental data from patent US6951887B2 (The Research Foundation of State University of New York, priority 1998, dated 2005).
# Legend:
# RD (Embryo) = assay: killing of cultured cells, RD; type: cell-based; set-up: key to cells killed by treatment: “+” indicates that the cells were killed by treatment; “−” indicates that they were not; “+/−” indicates a slow marginal response seen only in a few special cases with fibroblasts experimentally transformed by introduction of the ras oncogene
# Text: (§1) Table 1: Summarized are the responses of cells in culture to killing by example members of the family of blocked lipoate derivatives that are the object of this invention as well as one control compound (dihydroxyoctanoic acid). At right is indicated the specific cell line followed by the tissue of origin of the cell line. Across the top are listed the specific compounds tested. Each blocked lipoate derivative was used at two to fourfold above its threshold killing concentration. [These concentrations range form 0.15 mM (60 ug/ml or 60 mg/kg) to 2.5 mM (800 ug/ml or 800 mg/kg) (see EXAMPLE 11).] […] “+/−” indicates a slow marginal response seen only in a few special cases with fibroblasts experimentally transformed by introduction of the ras oncogene (EXAMPLE 10).
# (§2) First, each cell type to be tested was plated at low densities in the wells of a standard 6×24 well tissue culture plate. (Multiple wells are seeded for each cell type.)
# (§3) Second, the cells were allowed to grow to moderate densities. Transformed cells are in contact and non-transformed cells are contact-inhibited under these conditions.
# (§4) Third, the lipoate derivatives to be tested were added to individual wells. In these experiments each compound was added at two to fourfold above the threshold killing concentration for cancer cells (EXAMPLE 11).
# (§5) Fourth, cells were monitored over the next several days.
# MDCK (Kidney) = assay: killing of cultured cells, MDCK; type: cell-based; conditions: 120 ug/ml, ca. 48 hours
# Text: as §1, §2, §3, §4, §5
# Saos 2 (Bone) = assay: killing of cultured cells, Saos 2; type: cell-based; set-up: key: “+” indicates that the cells were killed by treatment; “−” indicates that they were not; “+/−” indicates a slow marginal response seen only in a few special cases with fibroblasts experimentally transformed by introduction of the ras oncogene; conditions: compound at two to fourfold above its threshold killing concentration
# Text: as §1, §2, §3, §4, §5
# B-16 melanoma = assay: B-16 system, cells injected IP; type: in vivo, mouse; conditions: 100 mg/kg IP twice a day, 16 days, B-16 cells IP in C57/BL mice
# Text: The B-16 melanoma strain was introduced either subcutaneously or intraperitoneally into individuals of the C57/BL syngeneic mouse strain (7). When left untreated such mice develop massive tumors in the immediate area of injection as well as secondary metastases throughout the animal—including in the liver and the lungs. These malignant growths result in the early death of the animals. Moreover, the resulting malignant growths are made up of darkly pigmented malignant melanocytes—making their assessment convenient and highly reliable. We will henceforth refer to this as the “B-16 system”.
# First, a group of mice were injected IP with B-16 cells. The injected group was divided at random into two equal subsets. One subset (experimental) was injected IP twice a day with 100 mg/kg of the bis-benzoyl lipoate member of the compound class in 200 ul of 10% ethanol. [See EXAMPLES 3, 8 and 11 for descriptions of bis-benzoyl lipoate.] The second subset (control) was injected with 200 ul of 10% ethanol alone.
# After 16 days, the animals were examined—including by dissection where appropriate. The control animals had numerous, massive IP tumor masses.
# [1] = system: HeLa (cervical cancer) cells; assay: TUNEL assay for apoptosis; type: cell-based; conditions: ca. 20-24 hours, ca. twofold above threshold killing concentration
# Text: In order to understand the experiment described in this Example is necessary to review details concerning the specific assay used in the experiments. Nuclear DNA of cells is normally present in the very long molecules making up chromosomes. These very long polymer molecules have only extremely rare free ends. In contrast, after the induction of apoptosis the cell begins to destroy itself and, in the process, introduces an extremely large number of breaks in its DNA in the process of reducing it to its small monomer constituents. The appropriate enzyme —terminal transferase—will add nucleotides to the free ends of DNA molecules. Moreover, this enzyme will use monomers (nucleotides) for this addition reaction that have highly fluorescent groups added to them. Thus, if the nuclei of normal cells—with few free DNA ends—are exposed to terminal transferase and fluorescent monomers very little fluorescence is added to these nuclei. In contrast, when these components are added to the nuclei of cells undergoing apoptosis and very large number of fluorescent monomers are added—to the very many DNA ends that are present—resulting in a massive introduction of fluorescence. The conventional assay based on these properties is referred by the acronym TUNEL. […] HeLa cancerous cells were plated in several wells in a tissue culture dish. […]
# MCF 7 (Breast) = assay: killing of cultured cells, MCF 7; type: cell-based; set-up: key: “+” indicates that the cells were killed by treatment; “−” indicates that they were not; “+/−” indicates a slow marginal response seen only in a few special cases with fibroblasts experimentally transformed by introduction of the ras oncogene; conditions: compound at two to fourfold above its threshold killing concentration
# Text: as §1, §2, §3, §4, §5
# B16 (Skin) = assay: killing of cultured cells, B16; type: cell-based; set-up: key: “+” indicates that the cells were killed by treatment; “−” indicates that they were not; “+/−” indicates a slow marginal response seen only in a few special cases with fibroblasts experimentally transformed by introduction of the ras oncogene; conditions: compound at two to fourfold above its threshold killing concentration
# Text: as §1, §2, §3, §4, §5
# C57/BL mice = assay: nonspecific toxicity by intraperitoneal injection; conditions: mouse, in vivo, ip
# Protocol: (§6) (All studies described in this section were carried out by intraperitoneal (IP) injection into C57/BL mice.)
# [2] = nonspecific toxicity by intraperitoneal injection; conditions: C57/BL, mouse, in vivo, ip
# Protocol: as §6
structure (smiles),measurement,setting,value
"O=C(O)CCCCC(CCSC(=O)c1ccccc1)SC(=O)c1ccccc1 (stereo not shown) [bis-benzoyl lipoate, 6,8-bisbenzoylmercaptooctanoic acid]","cell killing, embryonic cancer cells (FIG. 1)","RD (Embryo); 120 ug/ml, ca. 48 hours",efficiently killed
same,cells killed by treatment,"RD (Embryo); RD, Embryo, compound at two to fourfold above its threshold killing concentration",+
same,effect on normal (non-cancerous) kidney epithelial cell line (FIG. 1),MDCK (Kidney),not detectably affected
same,cells killed by treatment,Saos 2 (Bone),+
same,tumor mass relative to the control sample,B-16 melanoma,30-50%
same,induction of apoptosis (TUNEL),[1],induces apoptosis
same,cells killed by treatment,MCF 7 (Breast),+
same,cells killed by treatment,B16 (Skin),+
same,maximum well-tolerated dose,C57/BL mice,ca. 500 mg/kg
same,LD50,[2],~1000 mg/kg
